Bounds are passed on as bounds.

The EC50 is the concentration that produces a half-maximal response. A higher EC50 goes with lower potency in that assay.

In this assay the target is T1, GCase (Homo sapiens, UniProt P04062).
T1 construct: endogenous in cells; host or cells: HeLa cells
T1 sequence (P04062 40-536): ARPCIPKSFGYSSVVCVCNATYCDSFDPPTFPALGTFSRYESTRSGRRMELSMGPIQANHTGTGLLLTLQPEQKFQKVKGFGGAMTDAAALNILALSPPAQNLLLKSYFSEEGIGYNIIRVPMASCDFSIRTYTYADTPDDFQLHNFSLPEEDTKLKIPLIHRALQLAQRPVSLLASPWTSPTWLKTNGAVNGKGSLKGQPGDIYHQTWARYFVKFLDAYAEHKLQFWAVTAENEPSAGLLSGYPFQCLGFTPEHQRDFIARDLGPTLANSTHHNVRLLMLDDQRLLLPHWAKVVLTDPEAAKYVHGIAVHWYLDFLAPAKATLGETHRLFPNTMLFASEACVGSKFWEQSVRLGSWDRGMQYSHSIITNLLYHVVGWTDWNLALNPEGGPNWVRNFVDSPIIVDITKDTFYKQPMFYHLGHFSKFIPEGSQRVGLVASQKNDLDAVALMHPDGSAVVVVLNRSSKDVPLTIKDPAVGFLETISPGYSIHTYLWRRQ
Briefly: live cell PFB assay in HELA cells for activation of GCase. Format: cell-based. As to the method:
Exemplary compounds were evaluated for activation of GCase in a live cell PFB assay in HELA cells (essentially as described in Ysselstein et al., “LRRK2 kinase activity regulates lysosomal glucocerebrosidase in neurons derived from Parkinson's disease patients” Nature Communications (2019) 10:5570). […] EC50 ranges: A: <10 μM; B: >10-50 μM; C: >50-100 μM; D: >100 μM.
`FC(F)Cn1ncc2ncc(N[C@@H]3CC[C@@H]4CN(c5cccnc5C(F)(F)F)C[C@@H]4C3)nc21` (single isomer, unassigned) [Compound 75] registered a concentration for a half-maximal effect (EC50) above 100 µM.

`FC(F)Cn1ncc2ncc(N[C@H]3C[C@@H]4CN(c5ccc(C(F)(F)F)cn5)C[C@@H]4C3)nc21` [Compound 40, (3aR,5S,6aS)—N-[1-(2,2-difluoroethyl)-1H-pyrazolo[3,4-b]pyrazin-6-yl]-2-[5-(trifluoromethyl)pyridin-2-yl]-octahydrocyclopenta[c]pyrrol-5-amine]: the EC50 lay in the range of 10 to 50 µM.

Compound `O=C(c1ccc2ccn(CC3COC3)c2c1)N1CC[C@@H]2CN(c3cc(C(F)(F)F)ccn3)C[C@@H]2C1` (racemic) [Compound 9, rac-6-[(3aR,7aS)-2-[4-(trifluoromethyl)pyridin-2-yl]-octahydro-1H-pyrrolo[3,4-c]pyridine-5-carbonyl]-1-[(oxetan-3-yl)methyl]-1H-indole] returned an EC50 of 10 to 50 µM.

Take `FC(F)Cn1ncc2ncc(N[C@@H]3C[C@@H]4CN(c5cccnc5C(F)(F)F)C[C@@H]4C3)nc21` [Compound 36, (3aR,5S,6aS)—N-[1-(2,2-difluoroethyl)-1H-pyrazolo[3,4-b]pyrazin-6-yl]-2-[2-(trifluoromethyl)pyridin-3-yl]-octahydrocyclopenta[c]pyrrol-5-amine]: the EC50 was below 10 µM.

`COc1cnc(N2C[C@H]3C[C@H](Nc4cnc5cnn(CC(F)F)c5n4)C[C@H]3C2)cn1` [Compound 77, 1-(2,2-difluoroethyl)-N-((3aR,5s,6aS)-2-(5-methoxypyrazin-2-yl)octahydrocyclopenta[c]pyrrol-5-yl)-1H-pyrazolo[3,4-b]pyrazin-6-amine] gave an EC50 above 100 µM.

In the case of `FC(F)Cn1ncc2ncc(N[C@H]3C[C@@H]4CN(c5cc(C(F)(F)F)cnn5)C[C@@H]4C3)nc21` [Compound 83, 1-(2,2-difluoroethyl)-N-((3aR,5s,6aS)-2-(5-(trifluoromethyl)pyridazin-3-yl)octahydrocyclopenta[c]pyrrol-5-yl)-1H-pyrazolo[3,4-b]pyrazin-6-amine], the concentration for a half-maximal effect (EC50) was in the range of 10 to 50 µM.

`FC(F)Cn1ncc2ncc(N[C@@H]3C[C@@H]4CN(c5ncccc5C(F)(F)F)C[C@@H]4C3)nc21` [Compound 38, (3aR,5S,6aS)—N-[1-(2,2-difluoroethyl)-1H-pyrazolo[3,4-b]pyrazin-6-yl]-2-[3-(trifluoromethyl)pyridin-2-yl]-octahydrocyclopenta[c]pyrrol-5-amine]: the EC50 is below 10 µM.

`FC(F)Cn1ncc2ncc(N3CC[C@@H]4CN(c5cccc(C(F)(F)F)n5)C[C@@H]4C3)nc21` (racemic) [Compound 7] displayed an EC50 below 10 µM.

In the case of `FC(F)Cn1ncc2ncc(N3CC4CC(Oc5cc(C(F)(F)F)ccn5)CC4C3)nc21` (stereo not drawn) [Compound 30, 2-({2-[1-(2,2-difluoroethyl)-1H-pyrazolo[3,4-b]pyrazin-6-yl]-octahydrocyclopenta[c]pyrrol-5-yl}oxy)-4-(trifluoromethyl)pyridine], the half-maximal effective concentration (EC50) is below 10 µM.

Compound `FC(F)Cn1ncc2ncc(N3C[C@H]4CCN(c5cncc(C(F)(F)F)c5)C[C@H]4C3)nc21` (racemic) [Compound 14, rac-3-[(3aR,7aR)-2-[1-(2,2-difluoroethyl)-1H-pyrazolo[3,4-b]pyrazin-6-yl]-octahydro-1H-pyrrolo[3,4-c]pyridin-5-yl]-5-(trifluoromethyl)pyridine] registered a concentration giving a half-maximal response (EC50) of 10 to 50 µM.

Compound `FC(F)Cn1ncc2ncc(N3C[C@@H]4CCN(c5cccc(C(F)(F)F)n5)[C@@H]4C3)nc21` (racemic) [Compound 61, rac-2-[(3aR,6aR)-5-[1-(2,2-difluoroethyl)-1H-pyrazolo[3,4-b]pyrazin-6-yl]-octahydropyrrolo[2,3-c]pyrrol-1-yl]-6-(trifluoromethyl)pyridine] returned an EC50 of 10 to 50 µM.

As for `FC(F)Cn1ncc2ncc(N3CC[C@@H]4CN(c5ccc(C(F)(F)F)cn5)C[C@@H]4C3)nc21` (racemic) [Compound 8], the EC50 was below 10 µM.

The values are drawn from patent US20250230172A1 (Vanqua Bio, Inc., priority 2021, published 2025).
